# Measurements from PMC9304322, “Targeting retinoic acid receptor alpha-corepressor interaction activates chaperone-mediated autophagy and protects against retinal degeneration” (Nature Communications, 2022).
# Several values for one entry are separate records, joined by “and”; a condition that tells them apart may be missing. Identical values can stand only once.
# What was measured:
# [1] = test system: NIH3T3 cells stably expressing the mCherry-GFP-LC3 reporter; assay: Macroautophagy activity, mCherry-GFP-LC3 reporter; type: cell-based, mouse
# Method: Cells were transduced with a lentiviral vector expressing mCherry-GFP-LC3[35], fixed and flux determined as the conversion of dual fluorescence puncta (autophagosomes) into only red fluorescent puncta (autolysosomes). Flux was also measured by immunoblot for LC3 in cells incubated for 6 h with 20 mM NH4Cl/100 μM leupeptin, by discounting the intensity of LC3 in non-treated cells from that in cells treated with the inhibitors.
# [2] = test system: primary human fibroblast expressing the KFERQ-PS-Dendra reporter; assay: CMA activity, KFERQ-PS-Dendra reporter in primary human fibroblasts; type: cell-based; design: key to CMA activity, mean (Fig. S2c): puncta per cell
# Method: (§1) Cells were transduced with lentivirus carrying the KFERQ-PS-Dendra reporter as before. Cells were photoactivated by exposure to a 3.5 mA (current constant) light emitting diode (LED: Norlux, 405 nm) for 3 min and then plated in glass-bottom 96 well plates. At the desired times, cells were fixed with 4% PFA and imaged using high-content microscopy (Operetta system, Perkin Elmer). Images were quantified using the manufacturer’s software in a minimum of 1,200 cells in 9 independent fields per well. […] This was particularly important in the case of primary human cells where the efficiency of transduction was ~65%. To avoid confounding effects for drug-induced changes in cell volume or adherence to the plate that could bring a fraction of the cells per field outside of focus, we set a threshold to count only […] that have at least 1/10 of the average number of […] detected in the untreated wells for each cell type (3–4 puncta/cell in the case of NIH3T3 and N2a cells and 5 puncta/cell in primary human fibroblasts).
# [3] = test system: NIH3T3 stably expressing the KFERQ-PS-Dendra; assay: CMA activity, KFERQ-PS-Dendra fluorescent reporter in NIH3T3 mouse fibroblasts; type: cell-based; design: CMA activity (Fig. 1d), MEAN / CMA activity (Fig. 1e-g), mean / CMA activity (Fig. 1d), individual experiments / CMA activity, mean (Fig. S2c, second panel) / CMA activity, mean (Fig. S2c, first panel) / CMA activity, mean (Fig. S2c, third panel): unit not given here; details: for CMA activity (Fig. 1e-g), mean: n = 4
# Method: as §1
# [4] = c0 = 2 (axis unlabelled; ANOVA calls row factor Time)
smiles,measurement,setting,value
CC(=O)Nc1ccc(C2=Nc3ccc(Cl)cc3OC2)cc1 [CA77],effect on macroautophagy,"[1]; NIH3T3, MRT-sensitive proteolysis, LC3-II flux, mCherry-GFP-LC3 reporter",did not have the inhibitory effect on macroautophagy
same,APG (Fig. S3e),[1]; [4],3.899
same,AUT (Fig. S3e),[1]; [4],0.5811
same,AV (Fig. S3e),[1]; [4],4.481
same,APG (Fig. S3e),[1]; c0 = 5 (axis unlabelled),3.275
same,AUT (Fig. S3e),[1]; c0 = 5 (axis unlabelled),0.7542
same,AV (Fig. S3e),[1]; c0 = 5 (axis unlabelled),4.029
same,APG (Fig. S3e),[1]; c0 = 10 (axis unlabelled),2.43
same,AUT (Fig. S3e),[1]; c0 = 10 (axis unlabelled),3.694
same,AV (Fig. S3e),[1]; c0 = 10 (axis unlabelled),6.1244
same,APG (Fig. S3e),[1]; c0 = 15 (axis unlabelled),2.828
same,AUT (Fig. S3e),[1]; c0 = 15 (axis unlabelled),3.073
same,AV (Fig. S3e),[1]; c0 = 15 (axis unlabelled),5.901
same,APG (Fig. S3e),[1]; c0 = 20 (axis unlabelled),2.044
same,AUT (Fig. S3e),[1]; c0 = 20 (axis unlabelled),3.746
same,AV (Fig. S3e),[1]; c0 = 20 (axis unlabelled),5.79
same,APG (Fig. S3e),[1]; c0 = 25 (axis unlabelled),2.063
same,AUT (Fig. S3e),[1]; c0 = 25 (axis unlabelled),4.0642
same,AV (Fig. S3e),[1]; c0 = 25 (axis unlabelled),6.127
same,APG (Fig. S3e),[1]; c0 = 30 (axis unlabelled),2.895
same,AUT (Fig. S3e),[1]; c0 = 30 (axis unlabelled),3.5777
same,AV (Fig. S3e),[1]; c0 = 30 (axis unlabelled),6.473
same,APG (Fig. S3e),[1]; c0 = 40 (axis unlabelled),2.857
same,AUT (Fig. S3e),[1]; c0 = 40 (axis unlabelled),3.822
same,AV (Fig. S3e),[1]; c0 = 40 (axis unlabelled),6.679
same,APG (Fig. S3e),[1]; c0 = 50 (axis unlabelled),4.838
same,AUT (Fig. S3e),[1]; c0 = 50 (axis unlabelled),2.082
same,AV (Fig. S3e),[1]; c0 = 50 (axis unlabelled),6.9193
same,"CMA activity, mean (Fig. S2c)",[2]; concentration 0.02,27.1536
same,"CMA activity, mean (Fig. S2c)",[2]; concentration 0.2,22.1247
same,"CMA activity, mean (Fig. S2c)",[2]; concentration 2,23.6319
same,"CMA activity, mean (Fig. S2c)",[2]; concentration 5,30.8194
same,CMA activation in human cells,[2]; in words,efficiently activated CMA
same,"CMA activity (Fig. 1d), MEAN","[3]; 20 μM of each compound, n = 3 independent experiments",3.597
same,"CMA activity (Fig. 1d), individual experiments","[3]; 20 μM of each compound, single experiments",3.288 and 3.538 and 3.964
same,"CMA activity (Fig. 1e-g), mean","[3]; 12h, concentration 0.02 (unit not given)",6.451
same,"CMA activity (Fig. 1e-g), mean","[3]; 12h, concentration 0.2",6.218
same,"CMA activity (Fig. 1e-g), mean","[3]; 12h, concentration 2",6.38
same,"CMA activity (Fig. 1e-g), mean","[3]; 12h, concentration 5",31.6977
same,"CMA activity (Fig. 1e-g), mean","[3]; 12h, concentration 10",39.5886
same,"CMA activity (Fig. 1e-g), mean","[3]; 12h, concentration 20",52.9995
same,"CMA activity (Fig. 1e-g), mean","[3]; 12h, concentration 30",60.386
same,"CMA activity (Fig. 1e-g), mean","[3]; 12h, concentration 40",43.8824
same,"CMA activity (Fig. 1e-g), mean","[3]; 12h, concentration 50",33.4774
same,"CMA activity (Fig. 1e-g), mean","[3]; 24h, concentration 0.02",5.564
same,"CMA activity (Fig. 1e-g), mean","[3]; 24h, concentration 0.2",6.782
same,"CMA activity (Fig. 1e-g), mean","[3]; 24h, concentration 2",8.318
same,"CMA activity (Fig. 1e-g), mean","[3]; 24h, concentration 5",26.3626
same,"CMA activity (Fig. 1e-g), mean","[3]; 24h, concentration 10",39.2844
same,"CMA activity (Fig. 1e-g), mean","[3]; 24h, concentration 20",59.6703
same,"CMA activity (Fig. 1e-g), mean","[3]; 24h, concentration 30",82.4074
same,"CMA activity (Fig. 1e-g), mean","[3]; 24h, concentration 40",57.9474
same,"CMA activity (Fig. 1e-g), mean","[3]; 24h, concentration 50",59.2412
same,"CMA activity (Fig. 1h-j), mean, untreated (0) = 1","[3]; concentration 0.2, 12+12w (12 h, then 12 h after washing out)",0.8003
same,"CMA activity (Fig. 1h-j), mean, untreated (0) = 1","[3]; concentration 0.2, 12h",0.5989
same,"CMA activity (Fig. 1h-j), mean, untreated (0) = 1","[3]; concentration 0.2, 24h",0.8798
same,"CMA activity (Fig. 1h-j), mean, untreated (0) = 1","[3]; concentration 2, 12+12w",0.935
same,"CMA activity (Fig. 1h-j), mean, untreated (0) = 1","[3]; concentration 2, 12h",0.6146
same,"CMA activity (Fig. 1h-j), mean, untreated (0) = 1","[3]; concentration 2, 24h",1.079
same,"CMA activity (Fig. 1h-j), mean, untreated (0) = 1","[3]; concentration 5, 12+12w",4.471
same,"CMA activity (Fig. 1h-j), mean, untreated (0) = 1","[3]; concentration 5, 12h",3.053
same,"CMA activity (Fig. 1h-j), mean, untreated (0) = 1","[3]; concentration 5, 24h",3.42
same,"CMA activity (Fig. 1h-j), mean, untreated (0) = 1","[3]; concentration 10, 12+12w",4.902
same,"CMA activity (Fig. 1h-j), mean, untreated (0) = 1","[3]; concentration 10, 12h",3.813
same,"CMA activity (Fig. 1h-j), mean, untreated (0) = 1","[3]; concentration 10, 24h",5.096
same,"CMA activity (Fig. 1h-j), mean, untreated (0) = 1","[3]; concentration 20, 12+12w",5.399
same,"CMA activity (Fig. 1h-j), mean, untreated (0) = 1","[3]; concentration 20, 12h",5.105
same,"CMA activity (Fig. 1h-j), mean, untreated (0) = 1","[3]; concentration 20, 24h",7.74
same,"CMA activity (Fig. 1h-j), mean, untreated (0) = 1","[3]; concentration 30, 12+12w",7.708
same,"CMA activity (Fig. 1h-j), mean, untreated (0) = 1","[3]; concentration 30, 12h",5.817
same,"CMA activity (Fig. 1h-j), mean, untreated (0) = 1","[3]; concentration 30, 24h",10.6896
same,CMA activation compared with AR7,"[3]; fluorescent CMA reporter in mouse fibroblasts, basal and inducible CMA",> 40 % CMA of AR7
same,toxicity in cells,[3]; mouse fibroblasts,without noticeable toxicity
